Assay [1] is described as follows: Bilayer photographic element: interimage (Cg/Cb+g) and relative green sensitivity. How it is done: Bilayer photographic elements were prepared by coating the following layers on a cellulose triacetate film support (coverages are in g/m^2). Unless otherwise noted, all comparative and inventive compounds were dispersed in twice their own weight of N,N-dibutyllauramide:
Layer 1 (Antihalation Layer): black colloidal elemental silver at 0.34 and gelatin at2.41.
Layer 2 (Receiver Layer): gelatin at 2.79, CDIR-2 at 0.03, coupler M-1 (dispersed as described previously) added at 0.045, comparison material (CIEM) or IEM added at 7.2×10^-3 mmol/m^2 (this corresponds to 1.67 mmol per mole silver as AgBr or 0.96 mmol per mole of silver) dispersed in twice its own weight of N,N-dibutyllauramide and 0.81 green sensitized AgIBr tabular emulsion.
Layer 3 (Interlayer): gelatin at 0.64, ILS-1 at 0.11 and FD-1 at 0.11.
Layer 4 (Causer Layer): gelatin at 2.79, coupler Y-1 at 0.91, 0.79 blue sensitized AgIBr tabular emulsion and the DIR at 0.11 mmol/m^2.
Layer 5 (Overcoat): gelatin at 2.79 and 0.02 bis-vinylsulfonemethylether.
Samples of each element were given a stepped exposure of either green light only or blue and green light combined and processed in the KODAK FLEXICOLOR (C-41) process as described in British Journal of Photography Annual, 1988, pp196-198. Contrast of the elements was determined using the maximum slope between any two density points. In this test, the ratio of the contrast of the green only exposure to the contrast of the green of a blue and green exposure (Cg /Cb+g) is a measure of the interimage. A higher ratio means more inhibition originating from the blue and affecting the green record.
Another set of bilayer experiments were generated in a similar manner to show the effect of IEM laydown (as mmol per mol silver) and DIR variations.

Assay [2] can be described thus: Multilayer film: interimage (density change in receiver record) and relative green or blue sensitivity. The note with it: for Interimage B → G / Relative Green Sensitivity: IDIR-2 in blue layers. An excerpt:
Comparative examples are designated ML-C; inventive examples are designated ML-I.
Experimental Sample ML-C-0:
Layer 1 (Antihalation layer): black colloidal silver sol at 0.140; gelatin at 2.15; OxDS-1 at 0.108, DYE-1 at 0.049; DYE-2 at 0.017 and DYE-3 at 0.014.
Layer 2 (Slow cyan layer): a blend of three red sensitized (all with a mixture of RSD-1 and RSD-2) silver iodobromide emulsions: (i) a large sized tabular grain emulsion (1.3×0.118, 4.1 mole % I) at 0.522 (ii) a smaller tabular emulsion (0.85×0.115, 4.1 mole % I) at 0.337 and (iii) a very small tabular grain emulsion (0.55×0.115, 1.5 mole % I) at 0.559; gelatin at 2.85; cyan dye-forming coupler C-1 at 0.452; CDIR-1 at 0.043; bleach accelerator releasing coupler B-1 at 0.054 and anti-foggant 4-hydroxy-6-methyl-1,3,3a,7-tetraazaindene at 0.016.
Layer 3 (Fast cyan layer): a red-sensitized (same as above) tabular silver iodobromide emulsion (2.2×0.128, 4.1 mole % I) at 0.086; cyan coupler C-1 at 0.081; CDIR-1 at 0.034; MC-1 at 0.043; gelatin at 1.72 and anti-foggant 4-hydroxy-6-methyl-1,3,3a,7-tetraazaindene at 0.010.
Layer 4 (Interlayer): gelatin at 1.29.
Layer 5 (Slow magenta layer): a blend of two green sensitized (both with a mixture of GSD-1 and GSD-2) silver iodobromide emulsions: (i) 0.54×0.091, 4.1 mole % iodide at 0.194 and (ii) 0.52×0.085, 1.5 mole % iodide at 0.559; magenta dye forming coupler M-1 at 0.24, gelatin at 1.08 and anti-foggant 4-hydroxy-6-methyl-1,3,3a,7-tetraazaindene at 0.005.
Layer 6 (Mid magenta layer): a blend of two green sensitized (same as above) tabular silver iodobromide emulsions (i) 1.3×0.113, 4.1 mole % I at 0.430 and (ii) […], 4.1 mole % I at 0.172; magenta dye forming coupler M-1 at 0.065; MC-2 at 0.015; IDIR-5 at 0.016; gelatin at 2.12 and anti-foggant 4-hydroxy-6-methyl-1,3,3a,7-tetraazaindene at 0.003.
Layer 7 (Fast magenta layer): a green sensitized tabular silver iodobromide (1.8×0.127, 4.1 mole % I) emulsion at 0.689; gelatin at 1.61; magenta dye forming coupler M-1 at 0.043; MC-2 at 0.054 and CDIR-2 at 0.003.
Layer 8 (Yellow filter layer): gelatin at 0.86; Carey-Lea silver at 0.043 and OxDS-2 at 0.054.
Layer 9 (Slow yellow layer): an equal blend of three blue sensitized (all with YSD-1) silver iodobromide emulsions (i) 0.50×0.085, 1.5 mole % I (ii) 0.60 diameter 3-D, 3% mole I and (iii) 0.68 diameter 3-D, 3 mole % I at a total of 0.430; yellow dye forming coupler Y-2 at 0.699; yellow dye forming coupler Y-3 at 0.215; IDIR-2 at 0.086; C-1 at 0.097 and gelatin at 2.066.
Layer 10 (Fast yellow layer): two blue sensitized (with YSD-1) silver iodobromide emulsions (i) 3.1×0.137 tabular, 4.1 mole % I at 0.396 (ii) 0.95 diameter 3-D, 7.1 mole % I at 0.47; Y-2 at 0.131; Y-3 at 0.215; IDIR-2 at 0.075; C-1 at 0.011; B-1 at 0.008 and gelatin at 1.08.
Layer 11 (Protective overcoat and UV filter layer): gelatin at 1.61; silver bromide Lippman emulsion at 0.215; UV-1 and UV-2 (1:1 ratio) at a total of 0.023 and bis(vinylsulfonyl)methane hardener at 1.6% of total gelatin weight.
Surfactants, coating aids, emulsion addenda. sesquestrants, lubricants, matte and tinting dyes were added to the appropriate layers as is common in the art. The following describes the composition of each particular experimental coating based on ML-C-0:
ML-C-1: Like ML-C-0, but IDIR-6 replaces IDIR-2 in layers 9 and 10 at equimolar levels.
ML-C-2: Like ML-C-0, but IDIR-1 replaces IDIR-5 in layer 6 at 0.032.
ML-I-0: Like ML-C-0, but IEM-A added at 3×10^-4 in layer 5, 2×10^-4 in layer 6 and 2.9×10^-4 in layer 7.
ML-I-1: Like ML-C-0, but IEM-A added at 3×10^-3 in layer 5, 2×10^-3 in layer 6 and 2.9×10^-3 in layer 7.
ML-I-2: Like ML-C-0, but IEM-A added at 3×10^-2 in layer 5, 2×10^-2 in layer 6 and 2.9×10^-2 in layer 7.
ML-I-3: Like ML-C-0, but IEM-A added at 1.6×10^-3 in layers 9 and 10.
ML-I-4: Like ML-C-1, but IEM-A added at 1.6×10^-3 in layers 9 and 10.
ML-I-5: Like ML-C-2, but IEM-A added at 1.6×10^-3 in layers 9 and 10. […]

[3] abbreviates: Table III BL-23: laydown 0.96 mmol per mol silver, IDIR-2 in blue.
The mark [4] stands for this setting: Table III BL-24: laydown 9.6 mmol per mol silver, IDIR-2 in blue.
[5] abbreviates: Table III BL-26: laydown 0.96 mmol per mol silver, IDIR-6 in blue.
[6] abbreviates: Table III BL-27: laydown 9.6 mmol per mol silver, IDIR-6 in blue.
Where [7] appears, read: Table IV ML-I-0: 0.14 mmol IEM-A/mol silver in layers 5, 6, 7.
Setting [8] is: Table IV ML-I-1: 1.4 mmol IEM-A/mol silver in layers 5, 6, 7.
The mark [9] stands for this setting: Table IV ML-I-2: 14 mmol IEM-A/mol silver in layers 5, 6, 7.
Where [10] appears, read: Table V ML-I-3: IEM in blue layer, IDIR-2 in blue, IDIR-5 in green.
[11] abbreviates: Table V ML-I-4: IEM in blue layer, IDIR-6 in blue, IDIR-5 in green.
Where [12] appears, read: Table V ML-I-5: IEM in blue layer, IDIR-2 in blue, IDIR-1 in green.
Setting [13] is: Table V ML-I-6: IEM in blue layer, IDIR-6 in blue, IDIR-1 in green.

In the case of `CCC(C)(C)c1ccc(OCCCCNC(=O)c2ccc3[nH]nnc3c2)c(C(C)(C)CC)c1` [IEM-A], the “Cg /Cb+g (interimage ratio)” value in assay [1] (Table II, IDIR-2 in blue layer, IEM or CIEM at 7.2×10^-3 mmol/m^2) came out at 1.65; in assay [1] (setting [3]), 1.95; in assay [1] (setting [4]) it was 1.62; in assay [1] (setting [5]), 1.33; in assay [1] (setting [6]), 1.59. Moreover, the “Relative Green Sensitivity” value in assay [1] (setting [3]) is listed as 0.95; in assay [1] (setting [4]) it was 0.82; in assay [1] (setting [5]), 0.96; in assay [1] (setting [6]), 0.89; in assay [2] (setting [7]), 0.99; in assay [2] (setting [8]) it was 0.96. In assay [2] (setting [9]), the “Relative Green Sensitivity” value is given as 0.82. Besides, the “Interimage B → G” value is listed as -0.041 in assay [2] (setting [7]), -0.100 in assay [2] (setting [8]) and -0.097 in assay [2] (setting [9]). Further, the “Interimage G → B” value in assay [2] (setting [10]) is -0.154; in assay [2] (setting [11]), -0.155; in assay [2] (setting [12]), -0.202; in assay [2] (setting [13]), -0.243. Also, the “Relative Blue Sensitivity” value in assay [2] (setting [10]) came out at 0.98; in assay [2] (setting [11]), 0.97; in assay [2] (setting [12]), 0.98; in assay [2] (setting [13]), 0.96.

The values above are taken from patent US6190848A, “Color photographic element containing ballasted triazole derivative and inhibitor releasing coupler” (priority 1999, dated 2001).
